Each structure is given as a SMILES string.

Series [1] in a line: Pharmacokinetics in rats (half-life). The series is classed as in vivo, rat (male Sprague Dawley). The following applies: rat, blood, read-out: T 1/2 in Rats (converted). The text has this:
Per Os Pharmacokinetics in Rats--Procedure:
The animals are housed, fed and cared for according to the Guidelines of the Canadian Council on Animal Care. Male Sprague Dawley rats (325-375 g) are fasted overnight prior to each PO blood level study. The rats are placed in the restrainer one at a time and the box firmly secured. The zero blood sample is obtained by nicking a small (1 mm or less) piece off the tip of the tail. The tail is then stroked with a firm but gentle motion from the top to the bottom to milk out the blood. Approximately 1 mL of blood is collected into a heparirnized vacutainer tube.
Compounds are prepared as required, in a standard dosing volume of 10 mL/kg, and administered orally by passing a 16 gauge, 3" gavaging needle into the stomach. Subsequent bleeds are taken in the same manner as the zero bleed except that there is no need to nick the tail again. The tail is cleaned with a piece of gauze and milked/stroked as described above into the appropriately labelled tubes.
Immediately after sampling, blood is centrifuged, separated, put into clearly marked vials and stored in a freezer until analysed. Typical time points for determination of rat blood levels after PO dosing are 0, 15 min, 30 min, 1 h, 2 h, 4 h, and 6 h.
After the 4 hr time point bleed, food is provided to the rats ad libitum. Water is provided at all times during the study.
The following vehicles may be used in PO rat blood level determinations:
Compounds for PO blood levels can be in suspension form. For better dissolution, the solution can be placed in a sonicator for approximately 5 minutes.
For analysis, aliquots are diluted with an equal volume of acetonitrile and centrifuged to remove protein precipitate. The supernatant is injected directly onto a C-18 HPLC column with UV detection. Quantitation is done relative to a clean blood sample spiked with a known quantity of drug.
Intravenous Pharmacokinetics in Rats--Procedure
The animals are housed, fed and cared for according to the Guidelines of the Canadian Council on Animal Care. Male Sprague Dawley (325-375 g) rats are placed in plastic shoe box cages with a suspended floor, cage top, water bottle and food. The compound is prepared as required, in a standard dosing volume of 1 mL/kg.
Rats are bled for the zero blood sample and dosed under CO2 sedation. The rats, one at a time, are placed in a primed CO2 chamber and taken out as soon as they have lost their righting reflex. The rat is then placed on a restraining board, a nose cone with CO2 delivery is placed over the muzzle and the rat restrained to the board with elastics. With the use of forceps and scissors, the jugular vein is exposed and the zero sample taken, followed by a measured dose of compound which is injected into the jugular vein. Light digital pressure is applied to the injection site, and the nose cone is removed. The time is noted. This constitutes the zero time point.
The 5 min bleed is taken by nicking a piece (1-2 mm) off the tip of the tail. The tail is then stroked with a firm but gentle motion from the top of the tail to the bottom to milk the blood out of the tail. Approximately 1 mL of blood is collected into a heparinized collection vial. Subsequent bleeds are taken in the same fashion, except that there is no need to nick the tail again. The tail is cleaned with a piece of gauze and bled, as described above, into the appropriate labelled tubes. Typical time points for determination of rat blood levels after I.V. dosing are either a) 0, 5 min, 15 min, 30 min, 1 h, 2 h, 6 h, or b) 0, 5 min, 30 min, 1 h, 2 h, 4 h, 6 h.
The following vehicles may be used in IV rat blood level determinations:
DMSO (dimethylsulfoxide): Restricted to a dose volume of 0.1 mL per animal
PEG 200: Not more than 60% mixed with 40% sterile water --1 mL/kg
With Dextrose, either sodium bicarbonate or sodium carbonate can be added if the solution is cloudy. […]

Series [2] deals with T1, COX-1 (Homo sapiens, UniProt P23219). The series can be described thus: Human whole blood assay, COX-1 (clotting-induced TxB2 production). The series is classed as cell-based. The arrangement: platelets in whole blood contain a large amount of the COX-1 enzyme; from tissue; host or cells: fresh human whole blood without anticoagulant, platelets. The settings on record: clotting-induced TxB2, 1 hour at 37° C, read-out: HWB Cox-1 (IC50). The method, then:
(§1) Human whole blood provides a protein and cell-rich milieu appropriate for the study of biochemical efficacy of anti-inflammatory compounds such as selective COX-2 inhibitors. […] This is consistent with the observation that COX-2 inhibitors have no effect on PGE2 production in normal blood. These inhibitors are active only after incubation of human whole blood with LPS, which induces COX-2. This assay can be used to evaluate the inhibitory effect of selective COX-2 inhibitors on PGE2 production. As well, platelets in whole blood contain a large amount of the COX-1 enzyme. Immediately following blood clotting, platelets are activated through a thrombin-mediated mechanism. This reaction results in the production of thromboxane B2 (TXB2) via activation of COX-1. Thus, the effect of test compounds on TxB2 levels following blood clotting can be examined and used as an index for COX-1 activity. Therefore, the degree of selectivity by the test compound can be determined by measuring the levels of PGE2 after LPS induction (COX-2) and TxB2 following blood clotting (COX-1) in the same assay.
B. COX-1 (Clotting-induced TxB2 production)
Fresh blood is collected into vacutainers containing no anticoagulants. […] The tubes are vortexed and incubated at 37° C. for 1 hour to allow blood to clot. At the end of incubation, serum is obtained by centrifugation (12,000 x g for 5 min.). A 100 μL aliquot of serum is mixed with 400 μL of methanol for protein precipitation. The supernatant is obtained and is assayed for TxB2 using a enzyme immunoassay kit (Cayman, #519031) according to the manufacturer's instruction. […]

The target in series [3] is T1, COX-1. Kind of series: Assay of COX-1 activity from U937 cell microsomes. Details: Assay of COX-1 Activity from U937 cell microsomes; endogenous in cells; host or cells: U937 cells, 100,000 x g microsomal fraction. The series is classed as biochemical. The following applies: read-out: U937 Cox-1 (IC50, inhibition of PGE2 production). The method, then:
Assay of COX-1 Activity from U937 cell microsomes
U 937 cells are pelleted by centrifugation at 500 x g for 5 min and washed once with phosphate-buffered saline and repelleted. Cells are resuspended in homogenization buffer consisting of 0.1 M Tris-HCl, pH 7.4, 10 mM EDTA, 2 μg/ml leupeptin, 2 μg/ml soybean trypsin inhibitor, 2 μg/ml aprotinin and 1 mM phenyl methyl sulfonyl fluoride. The cell suspension is sonicated 4 times for 10 sec and is centrifuged at 10,000 x g for 10 min at 4° C. The supernatant is centrifuged at 100,000 x g for 1 hr at 4° C. The 100,000 x g microsomal pellet is resuspended in 0.1 M Tris-HCl, pH 7.4, 10 mM EDTA to approximately 7 mg protein/mil and stored at -80° C.
Microsomal preparations are thawed immediately prior to use, subjected to a brief sonication, and then diluted to a protein concentration of 125 μg/ml in 0.1 M Tris-HCl buffer, pH 7.4 containing 10 mM EDTA, 0.5 mM phenol, 1 mM reduced glutathione and 1 μM hematin. Assays are performed in duplicate in a final volume of 250 μl. Initially, 5 μl of DMSO vehicle or drug in DMSO are added to 20 μl of 0.1 M Tris-HCl buffer, pH 7.4 containing 10 mM EDTA in wells of a 96-deepwell polypropylene titre plate. 200 μl of the microsomal preparation are then added and pre-incubated for 15 min at room temperature before addition of 25 μl of […] arachidonic acid in […] Tris-HCl and 10 mM EDTA, pH 7.4. Samples are incubated for 40 min at room temperature and the reaction is stopped by the addition of 25 μl of 1 N HCl. Samples are neutralized with 25 μl of 1 N NaOH prior to quantitation of PGE2 content by radioimmunoassay (Dupont-NEN or Amersham assay kits). Cyclooxygenase activity is defined as the difference between PGE2 levels in samples incubated in the presence of arachidonic acid and ethanol vehicle.
(§2) Compounds of the present invention are inhibitors of COX-2 and are thereby useful in the treatment of COX-2 mediated diseases as enumerated above. The activities of the compounds against cyclooxygenase may be seen in the representative results shown below. In the assay, inhibition is determined by measuring the amount of prostaglandin E2 (PGE2) synthesized in the presence of arachidonic acid, COX-1 or COX-2 and a putative inhibitor. The IC50 values represent the concentration of putative inhibitor required to lower PGE2 synthesis to 50% of that obtained as compared to the uninhibited control.

The next series addresses T2, COX-2 (Homo sapiens, UniProt P35354).
T2 sequence (P35354 18-604): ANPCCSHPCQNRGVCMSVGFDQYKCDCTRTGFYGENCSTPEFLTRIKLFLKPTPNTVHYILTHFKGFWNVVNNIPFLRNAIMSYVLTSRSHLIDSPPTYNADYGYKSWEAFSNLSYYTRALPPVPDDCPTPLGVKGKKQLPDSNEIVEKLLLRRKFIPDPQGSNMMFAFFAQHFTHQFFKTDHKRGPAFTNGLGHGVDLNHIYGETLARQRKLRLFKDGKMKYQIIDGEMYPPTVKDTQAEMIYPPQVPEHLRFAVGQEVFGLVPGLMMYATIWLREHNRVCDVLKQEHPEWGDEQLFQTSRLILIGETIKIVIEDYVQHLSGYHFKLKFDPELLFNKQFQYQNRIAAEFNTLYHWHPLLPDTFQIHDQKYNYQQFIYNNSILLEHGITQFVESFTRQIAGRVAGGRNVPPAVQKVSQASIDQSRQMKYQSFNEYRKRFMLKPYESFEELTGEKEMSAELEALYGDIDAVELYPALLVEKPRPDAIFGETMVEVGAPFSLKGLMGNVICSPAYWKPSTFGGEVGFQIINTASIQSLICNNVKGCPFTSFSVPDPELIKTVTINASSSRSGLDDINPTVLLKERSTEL
The series can be described thus: Human whole blood assay, COX-2 (LPS-induced PGE2 production). The class given is cell-based. Details: incubation of human whole blood with LPS, which induces COX-2; from tissue; host or cells: fresh heparinized human whole blood from male and female volunteers, LPS-stimulated. The settings on record: 24 hours at 37° C, read-out: HWB Cox-2 (IC50, inhibition of PGE2 production). The method, then: as §1
A. COX-2 (LPS-induced PGE9 production)
Fresh blood is collected in heparinized tubes by venipuncture from both male and female volunteers. The subjects have no apparent inflammatory conditions and have not taken any NSAIDs for at least 7 days prior to blood collection. Plasma is immediately obtained from a 2 mL blood aliquot to use as blank (basal levels of PGE2). The remaining blood is incubated with LPS (100 μg/ml final concentration, Sigma Chem, #L-2630 from E. coli; diluted in 0.1% BSA (Phosphate buffered saline) for 5 minutes at room temperature. Five hundred μL aliquots of blood are incubated with either 2 μL of vehicle (DMSO) or 2 μL of a test compound at final concentrations varying from 10 nM to 30 μM for 24 hours at 37° C. At the end of the incubation, the blood is centrifuged at 12,000 x g for 5 minutes to obtain plasma. A 100 μL aliquot of plasma is mixed with 400 μL of methanol for protein precipitation. The supernatant is obtained and is assayed for PGE2 using a radioimmunoassay kit (Amersham, RPA#530) after conversion of PGE2 to its methyl oximate derivative according to the manufacturer's procedure.
as §2

T1 sequence (P23219 24-599): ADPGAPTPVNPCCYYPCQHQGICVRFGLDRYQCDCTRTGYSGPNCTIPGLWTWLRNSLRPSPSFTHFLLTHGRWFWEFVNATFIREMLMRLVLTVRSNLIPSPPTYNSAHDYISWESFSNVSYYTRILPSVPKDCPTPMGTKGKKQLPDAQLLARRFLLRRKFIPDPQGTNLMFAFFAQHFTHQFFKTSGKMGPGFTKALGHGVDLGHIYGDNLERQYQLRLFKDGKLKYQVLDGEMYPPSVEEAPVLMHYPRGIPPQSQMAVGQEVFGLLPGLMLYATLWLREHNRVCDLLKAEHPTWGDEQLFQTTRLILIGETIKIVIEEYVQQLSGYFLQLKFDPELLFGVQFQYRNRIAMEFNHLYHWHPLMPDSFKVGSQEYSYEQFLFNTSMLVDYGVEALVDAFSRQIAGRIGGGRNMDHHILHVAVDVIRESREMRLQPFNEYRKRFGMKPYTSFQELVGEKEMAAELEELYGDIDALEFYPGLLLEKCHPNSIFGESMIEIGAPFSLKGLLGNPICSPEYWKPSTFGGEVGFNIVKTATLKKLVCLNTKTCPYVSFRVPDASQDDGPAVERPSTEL

By IC50 is commonly meant the midpoint of a concentration-inhibition curve. On to `CC1(C)OC(=O)C(c2ccc(F)c(F)c2)=C1c1ccc(S(C)(=O)=O)cc1` [Compound T3-2, 3-(3,4-difluorophenyl)-5,5-dimethyl-4-[4-(methylsulfonyl)phenyl]-2,5-dihydro-2-furanone, reference compound], for which the half-life in series [1] is > 24 h. Further, the IC50 on COX-1 [2] was > 30 µM; at COX-1 [3], 10 to 30 µM.

For `CCC1(C)OC(=O)C(c2cccc(F)c2)=C1c1ccc(S(C)(=O)=O)cc1` (stereo not drawn) [f, 5-ethyl-3-(3-fluorophenyl)-5-methyl-4-[4-(methylsulfonyl)phenyl]-2,5-dihydro-2-furanone], the IC50 is > 30 µM at COX-1 [2], 0.48 µM at COX-2 and > 10 µM on COX-1 [3].

For the molecule `CCC1(C)OC(=O)C(c2ccccc2)=C1c1ccc(S(C)(=O)=O)cc1` (stereo not drawn) [a, 5-ethyl-5-methyl-4-[4-(methylsulfonyl)phenyl]-3-phenyl-2,5-dihydro-2-furanone], the figures for the concentration for half-maximal inhibition (IC50) on COX-1 [2], at COX-2 and on COX-1 [3] were > 30 µM, < 0.37 µM and 3 to 10 µM, respectively.

For the origin of these results see patent US6133292A, “Diaryl-5-alkyl-5-methyl-2-(5H)-furanones as selective cyclooxygenase-2-inhibitors” (Merck Frosst Canada & Co., priority 1998, dated 2000).
